In patent US5401490A, “Markers of tissue hypoxia” (priority 1989, dated 1995):

Legend:
EMT-6 tumor tissue = experiment: Imaging study using ^125 I-IAZA; type: in vivo
[1] = tested on: BALB/C mice bearing subcutaneous EMT-6 tumors; experiment: Tissue distribution of radioactivity after intravenous injection; type: in vivo; settings: for Tissue to Blood Ratio, Bone / Tissue to Blood Ratio, Carcass / Tissue to Blood Ratio, Heart / Tissue to Blood Ratio, Intestine / Tissue to Blood Ratio, Kidney / Tissue to Blood Ratio, Liver / Tissue to Blood Ratio, Lung / Tissue to Blood Ratio, Muscle / Tissue to Blood Ratio, Spleen / Tissue to Blood Ratio, Stomach / Tissue to Blood Ratio, Tumor: i.v.
Method in brief: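 BALB/c mice carried subcutaneous EMT-6 tumours (10^5 cells), reaching about 8–10 mm at 12–14 days. Each received a bolus tail-vein injection of ^125I-labelled drug (40–60 kBq). At set times, tissues were weighed wet and gamma-counted, giving % injected dose per gram; blood was assumed to be 6.5% of body weight.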

EMT-6 cells = experiment: Toxicity to hypoxic EMT-6 cells (surviving fraction); type: cell-based, mouse
Protocol: This represents a cytosidal toxicity about 10× that of MISO under the same conditions.
EXAMPLE 9 TOXICITY STUDIES
EMT-6 mouse fibrosarcoma cells in stirred cultures, as described previously (5), were exposed to various concentrations of the test drugs under hypoxic conditions. Cells were removed at various intervals and the colony-forming ability was assessed by plating the cells in drug-free complete MEM with 10% fetal calf serum. The data were used to construct plots of surviving fraction of EMT-6 cells against time of incubation with test drug at various drug concentrations (FIG. 2) as in Jette (13).

O=[N+]([O-])c1nccn1[C@@H]1O[C@H](CI)[C@@H](O)[C@@H]1O [IAZA, 1-(5-iodo-5-deoxy-β-D-arabino-furanosyl)-2-nitroimidazole]
delineation of tumor tissue in imaging (EMT-6 tumor tissue): clearly delineated from surrounding tissue | Tissue to Blood Ratio, Bone ([1]; 0.25 h): 0.50 | Tissue to Blood Ratio, Carcass ([1]; 0.25 h): 1.02 | Tissue to Blood Ratio, Heart ([1]; 0.25 h): 1.78 | Tissue to Blood Ratio, Intestine ([1]; 0.25 h): 2.06 | Tissue to Blood Ratio, Kidney ([1]; 0.25 h): 2.49 | Tissue to Blood Ratio, Liver ([1]; 0.25 h): 3.29 | Tissue to Blood Ratio, Lung ([1]; 0.25 h): 1.75 | Tissue to Blood Ratio, Muscle ([1]; 0.25 h): 1.17 | Tissue to Blood Ratio, Spleen ([1]; 0.25 h): 1.36 | Tissue to Blood Ratio, Stomach ([1]; 0.25 h): 1.66 | Tissue to Blood Ratio, Tumor ([1]; 0.25 h): 0.97 | Tissue to Blood Ratio, Bone ([1]; 0.50 h): 0.63 | Tissue to Blood Ratio, Carcass ([1]; 0.50 h): 1.18 | Tissue to Blood Ratio, Heart ([1]; 0.50 h): 1.64 | Tissue to Blood Ratio, Intestine ([1]; 0.50 h): 2.04 | Tissue to Blood Ratio, Kidney ([1]; 0.50 h): 2.61 | Tissue to Blood Ratio, Liver ([1]; 0.50 h): 3.29 | Tissue to Blood Ratio, Lung ([1]; 0.50 h): 1.74 | Tissue to Blood Ratio, Muscle ([1]; 0.50 h): 1.28 | Tissue to Blood Ratio, Spleen ([1]; 0.50 h): 1.38 | Tissue to Blood Ratio, Stomach ([1]; 0.50 h): 2.19 | Tissue to Blood Ratio, Tumor ([1]; 0.50 h): 1.60 | Tissue to Blood Ratio, Bone ([1]; 1 h): 0.63 | Tissue to Blood Ratio, Carcass ([1]; 1 h): 1.21 | Tissue to Blood Ratio, Heart ([1]; 1 h): 1.51 | Tissue to Blood Ratio, Intestine ([1]; 1 h): 2.52 | Tissue to Blood Ratio, Kidney ([1]; 1 h): 2.38 | Tissue to Blood Ratio, Liver ([1]; 1 h): 3.06 | Tissue to Blood Ratio, Lung ([1]; 1 h): 1.63 | Tissue to Blood Ratio, Muscle ([1]; 1 h): 1.19 | Tissue to Blood Ratio, Spleen ([1]; 1 h): 1.35 | Tissue to Blood Ratio, Stomach ([1]; 1 h): 2.15 | Tissue to Blood Ratio, Tumor ([1]; 1 h): 1.46 | Tissue to Blood Ratio, Bone ([1]; 2 h): 0.64 | Tissue to Blood Ratio, Carcass ([1]; 2 h): 1.60 | Tissue to Blood Ratio, Heart ([1]; 2 h): 1.13 | Tissue to Blood Ratio, Intestine ([1]; 2 h): 1.90 | Tissue to Blood Ratio, Kidney ([1]; 2 h): 1.98 | Tissue to Blood Ratio, Liver ([1]; 2 h): 2.39 | Tissue to Blood Ratio, Lung ([1]; 2 h): 1.26 | Tissue to Blood Ratio, Muscle ([1]; 2 h): 0.75 | Tissue to Blood Ratio, Spleen ([1]; 2 h): 1.02 | Tissue to Blood Ratio, Stomach ([1]; 2 h): 3.62 | Tissue to Blood Ratio, Tumor ([1]; 2 h): 2.80 | Tissue to Blood Ratio, Bone ([1]; 4 h): 0.60 | Tissue to Blood Ratio, Carcass ([1]; 4 h): 1.98 | Tissue to Blood Ratio, Heart ([1]; 4 h): 0.71 | Tissue to Blood Ratio, Intestine ([1]; 4 h): 1.80 | Tissue to Blood Ratio, Kidney ([1]; 4 h): 1.46 | Tissue to Blood Ratio, Liver ([1]; 4 h): 2.11 | Tissue to Blood Ratio, Lung ([1]; 4 h): 1.00 | Tissue to Blood Ratio, Muscle ([1]; 4 h): 0.53 | Tissue to Blood Ratio, Spleen ([1]; 4 h): 0.78 | Tissue to Blood Ratio, Stomach ([1]; 4 h): 4.02 | Tissue to Blood Ratio, Tumor ([1]; 4 h): 4.62 | Tissue to Blood Ratio, Bone ([1]; 8 h): 0.57 | Tissue to Blood Ratio, Carcass ([1]; 8 h): 2.00 | Tissue to Blood Ratio, Heart ([1]; 8 h): 1.57 | Tissue to Blood Ratio, Intestine ([1]; 8 h): 5.50 | Tissue to Blood Ratio, Kidney ([1]; 8 h): 2.43 | Tissue to Blood Ratio, Liver ([1]; 8 h): 3.36 | Tissue to Blood Ratio, Lung ([1]; 8 h): 2.36 | Tissue to Blood Ratio, Muscle ([1]; 8 h): 2.57 | Tissue to Blood Ratio, Spleen ([1]; 8 h): 1.29 | Tissue to Blood Ratio, Stomach ([1]; 8 h): 6.21 | Tissue to Blood Ratio, Tumor ([1]; 8 h): 8.71 | thyroid levels ([1]; 8 hours): 7.9 % of the total body activity | Tissue to Blood Ratio, Bone ([1]; 24 h): 0.59 | Tissue to Blood Ratio, Carcass ([1]; 24 h): 1.03 | Tissue to Blood Ratio, Heart ([1]; 24 h): 1.14 | Tissue to Blood Ratio, Intestine ([1]; 24 h): 1.11 | Tissue to Blood Ratio, Kidney ([1]; 24 h): 1.41 | Tissue to Blood Ratio, Liver ([1]; 24 h): 2.64 | Tissue to Blood Ratio, Lung ([1]; 24 h): 1.00 | Tissue to Blood Ratio, Muscle ([1]; 24 h): 0.54 | Tissue to Blood Ratio, Spleen ([1]; 24 h): 0.97 | Tissue to Blood Ratio, Stomach ([1]; 24 h): 1.81 | Tissue to Blood Ratio, Tumor ([1]; 24 h): 5.56 | thyroid levels ([1]; 24 hours): 33.8 % of the total body activity | injected dose in tumor at maximum tumor to blood ratio ([1]; at 8 h): 1.22 % of the injected dose | maximum tumor to blood ratio ([1]; at 8 h): 8.7 | tumor to blood ratio (text, FIG. 7) ([1]; at 24 h): > 5.5 | uptake in EMT-6 tumor tissue ([1]; in words): taken up preferentially in EMT-6 tumor tissue | deiodination (increase in thyroid radioactivity) ([1]; longer periods (>4 h)): evidence of deiodination at longer periods (>4 h) | time required to reduce the cell population by 90% (EMT-6 cells; 1.0 mM, hypoxic, 37° C.): 1.65 h | selective toxicity to hypoxic EMT-6 tumor cells (EMT-6 cells; in words): selective toxicity to hypoxic EMT-6 tumor cells
